These results are taken from patent US20200164072A1, “NANOCOMPLEXES FOR REMOTELY-TRIGGERED GUEST MOLECULE RELEASE AND METHODS FOR FABRICATING THE SAME” (William Marsh Rice University, priority 2018, published 2020).

Common to all, as to assay: LDH cytotoxicity assay after light-triggered release
What all share (assay type): cell-based

Data set [1] has as its system MDA-MB-231 breast cancer cells. The settings on record: pulsed laser-induced release (25 mW, 160 fs, 2 min) from NS@DNA1@DTX, FIG. 7A; 24 h. As for the experimental part:
(§1) Cellular cytotoxicity resulting from light-triggered release of DTX and LAP from both dsDNA and HSA nanohost molecules was evaluated. Cells were irradiated, according to one or more embodiments, with either a CW laser imparting 1.5 W of power or with a pulsed-laser using a Ti:Sapphire tunable laser operating at 250 kHz with an average power of 25 mW and 160-fs pulsed-laser power for 2 min.
(§2) After the guest molecules were released, each sample was treated at 37° C., 5% CO2 for a treatment period of 24 h to allow time for the released drug guest molecules to interact with the cells. Cell death was evaluated with a lactate dehydrogenase (LDH) cytotoxicity assay. Percent cytotoxicity values were calculated considering 10% cell death in the control experiment, NS @host with no laser treatment.

Data set [2] concerns RAW 264.7 macrophage cells. The settings on record: macrophages lack the HER2 receptor. The method, then:
as §1, §2
(§3) LAP was released from both an NS @DNA nanohost control and an NS @HSA nanohost in both SKBR3 breast cancer cells and RAW 264.7 macrophage cells.

For data set [3], the system named is SKBR3 breast cancer cells. The settings on record: released LAP; HER2 expressing breast cancer cells vs noncancerous cells. As for the experimental part: as §1, §2, §3

On to `CC(=O)O[C@@]12CO[C@@H]1C[C@H](O)[C@@]1(C)C(=O)[C@H](O)C3=C(C)[C@@H](OC(=O)[C@H](O)[C@@H](NC(=O)OC(C)(C)C)c4ccccc4)C[C@@](O)([C@@H](OC(=O)c4ccccc4)[C@H]21)C3(C)C` [DTX, docetaxel], for which the “cell death (LDH)” value in data set [1] is listed as “No increased cell death”. Regarding `CS(=O)(=O)CCNCc1ccc(-c2ccc3ncnc(Nc4ccc(OCc5cccc(F)c5)c(Cl)c4)c3c2)o1` [LAP, lapatinib], the cytotoxicity in macrophages result in data set [2] was “does not cause cytotoxicity”. Besides, in data set [3], the “selectivity of cell death” value was “selectively induces cell death in HER2 expressing breast cancer cells, without affecting noncancerous cells”.
